Measurements from publication PMC3815952 (Microbial biotechnology, 2009).

Assays:
Adeh3811 = experiment: calorimetry, non-linear regression; format: biochemical, Anaeromyxobacter dehalogenans; settings: Tris-SO4 pH 8.5, 30°C
RPA1163 = RPA1163 (Rhodopseudomonas palustris, UniProt Q6NAM1); experiment: calorimetry, non-linear regression; format: biochemical; settings: Tris-SO4 pH 8.5, 30°C
Bpro4516 = settings: Tris-SO4 pH 8.5, 30°C
RHA1_ro00230 = RHA1_ro00230 (Rhodococcus jostii, UniProt Q0SK70); experiment: calorimetry, non-linear regression; format: biochemical; settings: Tris-SO4 pH 8.5, 30°C
Sequence of RHA1_ro00230 (Q0SK70 1-254): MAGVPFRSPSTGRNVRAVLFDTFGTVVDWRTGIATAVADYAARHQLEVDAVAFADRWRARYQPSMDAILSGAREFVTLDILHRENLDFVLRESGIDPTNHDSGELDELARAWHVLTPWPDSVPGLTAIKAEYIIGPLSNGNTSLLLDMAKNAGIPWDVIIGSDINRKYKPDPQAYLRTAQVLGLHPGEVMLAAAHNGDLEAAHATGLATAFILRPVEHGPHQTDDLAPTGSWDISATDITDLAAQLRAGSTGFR

Bcen2424–2051 = settings: read-out: Substrates / Chloroacetate / KM; Tris-SO4 pH 8.5, 30°C

Sequence of RPA1163 (Q6NAM1 whole entry): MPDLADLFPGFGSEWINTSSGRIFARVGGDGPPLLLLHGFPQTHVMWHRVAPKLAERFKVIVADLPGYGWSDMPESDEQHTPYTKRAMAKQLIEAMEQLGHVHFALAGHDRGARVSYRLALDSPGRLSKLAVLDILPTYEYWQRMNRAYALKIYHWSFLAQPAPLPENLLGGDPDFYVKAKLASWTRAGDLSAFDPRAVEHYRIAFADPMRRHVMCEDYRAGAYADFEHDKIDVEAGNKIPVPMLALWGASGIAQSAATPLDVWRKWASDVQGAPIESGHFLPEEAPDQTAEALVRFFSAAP

| Compound | Substrates / Fluoroacetate / KM (μM) (Adeh3811) | Substrates / Fluoroacetate / KM (μM) (RPA1163) | Substrates / Fluoroacetate / KM (μM) (Bpro4516) | Substrates / Fluoroacetate / KM (μM) (RHA1_ro00230) | Substrates / Chloroacetate / KM (μM) (RPA1163) | Km (Bcen2424–2051) [µM] | Substrates / Chloroacetate / KM (μM) (RHA1_ro00230) |
| --- | --- | --- | --- | --- | --- | --- | --- |
| O=C(O)CF [fluoroacetate] | 13 500 ± 300 µM | 3 300 ± 200 µM | 19 000 ± 2000 µM | 20 000 ± 2000 µM |  |  |  |
| O=C(O)CCl [chloroacetate] |  |  |  |  | 1 400 ± 400 µM | 17 ± 2 | 19 000 ± 2000 µM |
